ChEMBL document CHEMBL1201862, “PubChem BioAssay data set” (2004)
Counter-ions that a name gives are not always drawn.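 Step 1: Grow cells in 96-well plates. Step 2: Expose to compound for 48 hours at 5 concentrations. Step 3: Interpolate endpoints linearly; if unreached, use highest concentration. GI50 is the concentration that inhibits growth by half.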 Calls of active or inactive are those of the source. Rule as the data show it: active = GI50 up to about 1.1 µM and inactive = higher.

Columns and labels:
Assay in all cases: NCI anticancer screen, dose series, 48 h
HOP-92 = test system: HOP-92
NCI-H460 = test system: NCI-H460
HCT-116 = test system: HCT-116
A549 = test system: A549
HL-60 = test system: HL-60
OVCAR-4 = test system: OVCAR-4
LOX IMVI = test system: LOX IMVI
UACC-257 = test system: UACC-257
UO-31 = test system: UO-31
RPMI-8226 = test system: RPMI-8226
SR = test system: SR
HT-29 = test system: HT-29
SNB-75 = test system: SNB-75
U-251 = test system: U-251
NCI-H522 = test system: NCI-H522
UACC-62 = test system: UACC-62
MDA-MB-435 = test system: MDA-MB-435
MDA-MB-231 = test system: MDA-MB-231
DU-145 = test system: DU-145
MDA-N = test system: MDA-N

Structure (SMILES) | GI50 (HOP-92) | GI50 (NCI-H460) | GI50 (HCT-116) | GI50 (A549) | GI50 (HL-60) | GI50 (OVCAR-4) | GI50 (LOX IMVI) | GI50 (UACC-257) | GI50 (UO-31) | GI50 (RPMI-8226) | GI50 (SR) | GI50 (HT-29) | GI50 (SNB-75) | GI50 (U-251) | GI50 (NCI-H522) | GI50 (UACC-62) | GI50 (MDA-MB-435) | GI50 (MDA-MB-231) | GI50 (DU-145) | GI50 (MDA-N)
COc1ccc2[nH]c3c(C)c4c(c(C)c3c2c1)CN(C)CC4 | 16.9 µM (inactive) | 11.6 µM (inactive) | 3.17 µM (inactive) | 17.7 µM (inactive) | 2.09 µM (inactive) | 19 µM (inactive) | 13.7 µM (inactive) | 17.7 µM (inactive) | 16.4 µM (inactive) | 4.69 µM (inactive) | 23.4 µM (inactive) | 6.47 µM (inactive) | 18 µM (inactive) | 17.7 µM (inactive) | 18 µM (inactive) | 19.2 µM (inactive) |  |  |  | 
CC#CC#C/C=C1\C=CC2(OC=CC2O)O1 (stereo unspecified) | 7.13 µM (inactive) | > 23.3 µM (inactive) | 8.04 µM (inactive) | 13.1 µM (inactive) | > 14.1 µM (inactive) | 8.26 µM (inactive) | 11.9 µM (inactive) | 16 µM (inactive) | 12.2 µM (inactive) | 13.4 µM (inactive) | > 12.7 µM (inactive) | 7.91 µM (inactive) | > 19.1 µM (inactive) | > 20.7 µM (inactive) | 5.65 µM (inactive) | 9.59 µM (inactive) |  |  |  | 
SCc1ccc(-c2ccc(CS)cc2)cc1 | 17.9 µM (inactive) | 10.4 µM (inactive) | 7.55 µM (inactive) | 20.5 µM (inactive) | 3.25 µM (inactive) | 6.38 µM (inactive) | 4 µM (inactive) | 21.1 µM (inactive) | 18.4 µM (inactive) | 8.77 µM (inactive) | 2.42 µM (inactive) | 26.9 µM (inactive) | 10.7 µM (inactive) | 15.1 µM (inactive) | 17.8 µM (inactive) | 14.9 µM (inactive) | 5.74 µM (inactive) | 11.2 µM (inactive) | > 10 µM (inactive) | 
Cc1cc2c3ccccc3n3c2c2c1OC1(C)CCC(C2C1)C3(C)C (stereo unspecified) | > 25 µM (inactive) | > 25 µM (inactive) | > 25 µM (inactive) | > 25 µM (inactive) | > 25 µM (inactive) | > 25 µM (inactive) | > 25 µM (inactive) |  | > 25 µM (inactive) | > 25 µM (inactive) | > 25 µM (inactive) | > 25 µM (inactive) |  | > 25 µM (inactive) | > 25 µM (inactive) | > 25 µM (inactive) |  |  |  | 
CC12CCC3c4cc(Br)c(O)c(Br)c4CCC3C1CCC2O (stereo unspecified) | > 10 µM (inactive) |  | 19.1 µM (inactive) | 19.5 µM (inactive) | 14.8 µM (inactive) |  | 18.1 µM (inactive) | 17.8 µM (inactive) | 15.8 µM (inactive) |  |  | 15.4 µM (inactive) | 16.3 µM (inactive) | 15 µM (inactive) |  | 14 µM (inactive) | 4.23 µM (inactive) | 13.3 µM (inactive) | 34.9 µM (inactive) | 3.98 µM (inactive)
C(=C1/CCCCC([n+]2ccccc2)=N1)/c1ccccc1 | > 100 µM (inactive) | > 100 µM (inactive) | > 100 µM (inactive) | > 100 µM (inactive) | > 100 µM (inactive) | > 100 µM (inactive) | > 100 µM (inactive) |  | > 100 µM (inactive) | > 100 µM (inactive) | > 100 µM (inactive) | > 100 µM (inactive) | > 100 µM (inactive) | > 100 µM (inactive) | > 100 µM (inactive) | > 100 µM (inactive) |  |  |  | 
Cc1cccc(C)c1NC(=O)C(=O)C(C#N)c1ccccc1Cl (stereo unspecified) | > 100 µM (inactive) | > 100 µM (inactive) | > 100 µM (inactive) | > 100 µM (inactive) | 80.2 µM (inactive) | > 100 µM (inactive) |  | > 100 µM (inactive) | > 100 µM (inactive) | > 100 µM (inactive) | > 100 µM (inactive) | > 100 µM (inactive) | > 100 µM (inactive) | > 100 µM (inactive) | > 100 µM (inactive) | > 100 µM (inactive) |  |  |  | 
CCCSc1ccc2[nH]c(N3C(=O)/C(=C/c4ccc(O)c(OC)c4)N=C3c3ccccc3)cc2c1 | 22 µM (inactive) | 0.0422 µM (active) | 7.59 µM (inactive) |  | 2.82 µM (inactive) |  | 7.14 µM (inactive) | 4.56 µM (inactive) | 12.8 µM (inactive) | 3.53 µM (inactive) | 1.34 µM (inactive) | 3.02 µM (inactive) | 26.2 µM (inactive) |  | 4.07 µM (inactive) | 3.07 µM (inactive) | 2.69 µM (inactive) |  | 25.8 µM (inactive) | 2.32 µM (inactive)
COC(=O)C(=O)C(C(=O)OC)C(=O)C(=O)Nc1c(Cl)cc([N+](=O)[O-])cc1Cl (stereo unspecified) | > 100 µM (inactive) | > 100 µM (inactive) | > 100 µM (inactive) | > 100 µM (inactive) | > 100 µM (inactive) | 80.9 µM (inactive) | 83 µM (inactive) | > 100 µM (inactive) | > 100 µM (inactive) | > 100 µM (inactive) | > 10 µM (inactive) | > 100 µM (inactive) | 64.1 µM (inactive) | 68.7 µM (inactive) | 27 µM (inactive) | > 100 µM (inactive) | > 100 µM (inactive) | > 100 µM (inactive) |  | > 100 µM (inactive)
CC(C)(C=O)CC(C#N)/C(=N\NC(N)=O)C(=O)Nc1ccccc1C(N)=O (stereo unspecified) | 38.6 µM (inactive) | > 100 µM (inactive) | > 100 µM (inactive) | > 100 µM (inactive) | > 100 µM (inactive) | > 100 µM (inactive) | > 100 µM (inactive) | > 100 µM (inactive) | > 100 µM (inactive) | > 100 µM (inactive) | > 100 µM (inactive) | > 100 µM (inactive) |  | > 100 µM (inactive) | > 100 µM (inactive) | > 100 µM (inactive) |  |  |  | 
COc1cc2ccnc3c2c(c1OC)-c1coc(SC)c1-3 | 29 µM (inactive) | 97.3 µM (inactive) | 52.8 µM (inactive) | > 100 µM (inactive) | 9.18 µM (inactive) | 48.6 µM (inactive) | 82 µM (inactive) | > 100 µM (inactive) | 26.4 µM (inactive) | 13 µM (inactive) | 40.2 µM (inactive) | 94.8 µM (inactive) | 19.7 µM (inactive) | 67.1 µM (inactive) | 32.4 µM (inactive) | 86.1 µM (inactive) |  |  |  | 
O=C(O)c1nc2cc(C(F)(F)F)ccc2nc1Nc1ccc(F)cc1 | 13.5 µM (inactive) |  | 15.4 µM (inactive) | 11.2 µM (inactive) |  |  | 18.7 µM (inactive) | 20.6 µM (inactive) | 15.8 µM (inactive) | 4.17 µM (inactive) | 17.1 µM (inactive) | 23 µM (inactive) | 18.5 µM (inactive) | 18.3 µM (inactive) | 7.5 µM (inactive) | 12.6 µM (inactive) | 7.71 µM (inactive) | 22.9 µM (inactive) |  | 22.5 µM (inactive)
C=CCOC(C)(C)C1=CCC(C)CC1 (stereo unspecified) | > 100 µM (inactive) | > 100 µM (inactive) | > 100 µM (inactive) | > 100 µM (inactive) | > 100 µM (inactive) | > 100 µM (inactive) |  | > 100 µM (inactive) | > 100 µM (inactive) | > 100 µM (inactive) | > 10 µM (inactive) | > 100 µM (inactive) | > 100 µM (inactive) | > 100 µM (inactive) | > 100 µM (inactive) | > 100 µM (inactive) | > 100 µM (inactive) |  | > 100 µM (inactive) | > 100 µM (inactive)
COC(=O)C(=O)C(C(=O)C(=O)Nc1nnc(S)[nH]1)c1nc2ccc([N+](=O)[O-])cc2nc1O (stereo unspecified) | > 100 µM (inactive) | > 100 µM (inactive) | > 100 µM (inactive) | > 100 µM (inactive) | > 100 µM (inactive) | > 100 µM (inactive) | > 100 µM (inactive) | > 100 µM (inactive) | 82.8 µM (inactive) | > 100 µM (inactive) |  | > 100 µM (inactive) | > 100 µM (inactive) | > 100 µM (inactive) | > 100 µM (inactive) | > 100 µM (inactive) | > 100 µM (inactive) | > 100 µM (inactive) |  | > 100 µM (inactive)
CCOC(=O)C1CC/C(=C(/C#N)C(=O)OC)N1 (stereo unspecified) | > 100 µM (inactive) | > 100 µM (inactive) | > 100 µM (inactive) | > 100 µM (inactive) | > 100 µM (inactive) | > 100 µM (inactive) | > 100 µM (inactive) | > 100 µM (inactive) | > 100 µM (inactive) | > 100 µM (inactive) | > 100 µM (inactive) |  | > 100 µM (inactive) | > 100 µM (inactive) | > 100 µM (inactive) | 31.8 µM (inactive) |  |  |  | 
Cc1ccc(S(=O)(=O)NC(=O)Nc2c(S(N)(=O)=O)cc(S(N)(=O)=O)c(Cl)c2Cl)cc1 | > 100 µM (inactive) | > 100 µM (inactive) | > 100 µM (inactive) | > 100 µM (inactive) | > 100 µM (inactive) | > 100 µM (inactive) | > 100 µM (inactive) | > 100 µM (inactive) | > 100 µM (inactive) | > 100 µM (inactive) | > 100 µM (inactive) | > 100 µM (inactive) |  | > 100 µM (inactive) | > 100 µM (inactive) | > 100 µM (inactive) | > 100 µM (inactive) | > 100 µM (inactive) |  | > 100 µM (inactive)
N=c1ccn2c(n1)O[C@H]1[C@H](O)[C@@H](CO)O[C@H]12 [ANCITABINE HYDROCHLORIDE] |  | 0.154 µM (active) | 0.282 µM (active) | 0.198 µM (active) | 0.346 µM (active) | > 1000 µM (inactive) | 0.347 µM (active) | 78.7 µM (inactive) |  | 141 µM (inactive) | 0.183 µM (active) | 135 µM (inactive) | 532 µM (inactive) | 15.1 µM (inactive) | 47.4 µM (inactive) | 2.24 µM (inactive) |  | 31.7 µM (inactive) |  | 
